From patent publication US20070082871A1, “Antiresorptive mutual salt of raloxifene and bisphosphonic acid” (HANMI PHARM. CO., LTD., priority 2003, published 2007)
Read-outs that look alike come from different tables or passages of the source.

Key:
ovary-removed rats [1] = test: In vivo test: blood cholesterol level; design: species or system rats (Sprague-Dawley); details: for Total blood cholesterol Conc.: oophorectomy rats, oral once a day 8 weeks; for Total blood cholesterol Relativ. Conc.: relative to OVX control = 1.00
Protocol: (§1) In order to investigate the effects of the inventive mutual salts on BMD, bone stiffness, serum cholesterol level and calcium density, in vivo tests were carried out as follows.
(§2) Also, 1.5% carboxymethylcellulose alone was administrated in a same manner to each of ovary-removed rats (group OVX) and normal rats (control, group Sham). After 8 weeks, a femur sample was obtained from each test groups to measure BMD, maximum load, stiffness, trabecular volume of epiphysis, bone volume of metaphysis, blood cholesterol level and blood calcium density.

ovary-removed rats [2] = details: for Bone volume Vol.: (bone volume)/(metaphysis volume) × 100; for Trabecular volume Vol.: (trabecular volume)/(epiphysis volume) × 100; for BMD / Stiffness Max. load / Stiffness Stiff.: femur; for BMD / Stiffness Max. load / Stiffness Stiff. / Blood calcium density Conc.: oophorectomy rats, oral once a day 8 weeks; for Stiffness Relativ. Stiff.: relative Max. Load value, OVX control = 1.00; for BMD Relativ. Density / Blood calcium density Relativ. Conc. / Bone volume Relativ Vol / Trabecular volume Relativ Vol: relative to OVX control = 1.00
Protocol: as §1, §2

[3] = in words, as compared with the individual raloxifene hydrochloride or alendronate

raloxifene alendronate pentahydrate
blood cholesterol level (ovary-removed rats [1]; [3]): effectively controls | Total blood cholesterol Conc. (ovary-removed rats [1]; 2.9 mg/kg (T4)): 66.86 ± 9.68 mg/dL | Total blood cholesterol Relativ. Conc. (ovary-removed rats [1]; 2.9 mg/kg (T4)): 0.64 | Bone volume Vol. (ovary-removed rats [2]; 2.9 mg/kg (T4)): 68.00 ± 9.00% | Trabecular volume Vol. (ovary-removed rats [2]; 2.9 mg/kg (T4)): 17.81 ± 2.49% | BMD (ovary-removed rats [2]; 2.9 mg/kg (T4)): 99.28 ± 6.25 mg/cm^2 | Stiffness Max. load (ovary-removed rats [2]; 2.9 mg/kg (T4)): 26.50 ± 0.73 N | Stiffness Stiff. (ovary-removed rats [2]; 2.9 mg/kg (T4)): 35.34 ± 11.3 N/mm | BMD, bone stiffness, trabecular volume and bone volume (ovary-removed rats [2]; [3]): markedly enhances | blood calcium level (ovary-removed rats [2]; [3]): effectively controls | Blood calcium density Conc. (ovary-removed rats [2]; 2.9 mg/kg (T4)): 6.69 ± 0.94 mg/dL | Stiffness Relativ. Stiff. (ovary-removed rats [2]; 2.9 mg/kg (T4)): 1.21 | BMD Relativ. Density (ovary-removed rats [2]; 2.9 mg/kg (T4)): 1.27 | Blood calcium density Relativ. Conc. (ovary-removed rats [2]; 2.9 mg/kg (T4)): 0.71 | Bone volume Relativ Vol (ovary-removed rats [2]; 2.9 mg/kg (T4)): 2.37 | Trabecular volume Relativ Vol (ovary-removed rats [2]; 2.9 mg/kg (T4)): 1.54

NCCCC(O)(P(=O)(O)O)P(=O)(O)O [Alendronate, sodium alendronate trihydrate]
Total blood cholesterol Conc. (ovary-removed rats [1]; 1.0 mg/kg (T1)): 98.387 ± 17.23 mg/dL | Total blood cholesterol Relativ. Conc. (ovary-removed rats [1]; 1.0 mg/kg (T1)): 0.93 | Bone volume Vol. (ovary-removed rats [2]; 1.0 mg/kg (T1)): 56.46 ± 17.93% | Trabecular volume Vol. (ovary-removed rats [2]; 1.0 mg/kg (T1)): 20.27 ± 7.76% | BMD (ovary-removed rats [2]; 1.0 mg/kg (T1)): 92.57 ± 5.64 mg/cm^2 | Stiffness Max. load (ovary-removed rats [2]; 1.0 mg/kg (T1)): 19.22 ± 2.14 N | Stiffness Stiff. (ovary-removed rats [2]; 1.0 mg/kg (T1)): 19.02 ± 3.86 N/mm | Stiffness Relativ. Stiff. (ovary-removed rats [2]; 1.0 mg/kg (T1)): 0.88 | Trabecular volume Relativ Vol (ovary-removed rats [2]; 1.0 mg/kg (T1)): 1.75

Cl.O=C(c1ccc(OCCN2CCCCC2)cc1)c1c(-c2ccc(O)cc2)sc2cc(O)ccc12 [Raloxifene hydrochloride, 6-hydroxy-2-(4-hydroxyphenyl)benzo[b]thien-3-yl 4-[2-(1-piperidinyl)ethoxy]phenyl methanone hydrochloride]
Total blood cholesterol Conc. (ovary-removed rats [1]; 1.9 mg/kg (T2)): 41.40 ± 9.71 mg/dL | Total blood cholesterol Conc. (ovary-removed rats [1]; 5.6 mg/kg (T3)): 40.83 ± 14.2 mg/dL | Total blood cholesterol Relativ. Conc. (ovary-removed rats [1]; 1.9 mg/kg (T2)): 0.39 | Total blood cholesterol Relativ. Conc. (ovary-removed rats [1]; 5.6 mg/kg (T3)): 0.39 | Bone volume Vol. (ovary-removed rats [2]; 1.9 mg/kg (T2)): 75.96 ± 17.61% | Bone volume Vol. (ovary-removed rats [2]; 5.6 mg/kg (T3)): 65.56 ± 15.33% | Trabecular volume Vol. (ovary-removed rats [2]; 1.9 mg/kg (T2)): 11.25 ± 2.57% | Trabecular volume Vol. (ovary-removed rats [2]; 5.6 mg/kg (T3)): 15.15 ± 4.08% | BMD (ovary-removed rats [2]; 1.9 mg/kg (T2)): 91.09 ± 6.98 mg/cm^2 | Stiffness Max. load (ovary-removed rats [2]; 1.9 mg/kg (T2)): 30.00 ± 3.24 N | Stiffness Stiff. (ovary-removed rats [2]; 1.9 mg/kg (T2)): 33.07 ± 9.55 N/mm | BMD (ovary-removed rats [2]; 5.6 mg/kg (T3)): 93.76 ± 6.22 mg/cm^2 | Stiffness Max. load (ovary-removed rats [2]; 5.6 mg/kg (T3)): 32.09 ± 4.37 N | Stiffness Stiff. (ovary-removed rats [2]; 5.6 mg/kg (T3)): 38.64 ± 15.2 N/mm | Blood calcium density Conc. (ovary-removed rats [2]; 1.9 mg/kg (T2)): 9.20 ± 0.33 mg/dL | Blood calcium density Conc. (ovary-removed rats [2]; 5.6 mg/kg (T3)): 9.42 ± 0.23 mg/dL | Stiffness Relativ. Stiff. (ovary-removed rats [2]; 1.9 mg/kg (T2)): 1.37 | Stiffness Relativ. Stiff. (ovary-removed rats [2]; 5.6 mg/kg (T3)): 1.46 | BMD Relativ. Density (ovary-removed rats [2]; 1.9 mg/kg (T2)): 1.17 | Blood calcium density Relativ. Conc. (ovary-removed rats [2]; 1.9 mg/kg (T2)): 0.98 | Bone volume Relativ Vol (ovary-removed rats [2]; 1.9 mg/kg (T2)): 2.64 | Trabecular volume Relativ Vol (ovary-removed rats [2]; 1.9 mg/kg (T2)): 0.97 | BMD Relativ. Density (ovary-removed rats [2]; 5.6 mg/kg (T3)): 1.20 | Blood calcium density Relativ. Conc. (ovary-removed rats [2]; 5.6 mg/kg (T3)): 1.00 | Bone volume Relativ Vol (ovary-removed rats [2]; 5.6 mg/kg (T3)): 2.28 | Trabecular volume Relativ Vol (ovary-removed rats [2]; 5.6 mg/kg (T3)): 1.31
